Experimental data as given in PubChem BioAssay (NCI).
Several values for one entry are separate records, joined by “and”; a condition that tells them apart may be missing. Equal values may be shown once.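 Assay format: 96-well plates, 48-hour exposure. Abbreviation: GI50, concentration required for 50% inhibition of growth. The concentration for full growth arrest is given as TGI.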

Assays:
Experiment in all cases: inhibition of tumour cell growth, NCI panel, 48 h
[1] = test system: MOLT-4 leukemia
[2] = test system: KM12 colon
[3] = test system: NCI/ADR-RES ovarian
[4] = test system: HS 578T breast
[5] = test system: K-562 leukemia
[6] = test system: SK-MEL-2 melanoma
[7] = test system: SK-OV-3 ovarian
[8] = test system: 786-0 renal
[9] = test system: SNB-19 CNS
[10] = test system: NCI-H226 lung
[11] = test system: OVCAR-4 ovarian
[12] = test system: SR leukemia
[13] = test system: DU-145 prostate
[14] = test system: BT-549 breast
[15] = test system: MALME-3M melanoma
[16] = test system: NCI-H23 lung
[17] = test system: MDA-MB-435
[18] = test system: M14 melanoma
[19] = test system: HL-60(TB) leukemia
[20] = test system: HCT-15 colon
[21] = test system: HOP-92 NSCLC
[22] = test system: TK-10 renal
[23] = test system: ACHN renal
[24] = test system: COLO 205 colon
[25] = test system: EKVX NSCLC
[26] = test system: MCF7 breast
[27] = test system: HCT-116 colon
[28] = test system: HT29 colon
[29] = test system: RPMI-8226 leukemia
[30] = test system: UACC-257 melanoma
[31] = test system: SF-268 CNS
[32] = test system: CCRF-CEM leukemia
[33] = test system: CAKI-1 renal
[34] = test system: SN12C renal
[35] = test system: HOP-62 NSCLC
[36] = test system: PC-3 prostate
[37] = test system: LOX IMVI melanoma
[38] = test system: A549 NSCLC
[39] = test system: RXF 393 renal
[40] = test system: A498 renal
[41] = test system: IGROV1 ovarian
[42] = test system: SF-539 CNS
[43] = test system: OVCAR-3 ovarian
[44] = test system: SW-620 colon
[45] = test system: OVCAR-5 ovarian
[46] = test system: OVCAR-8 ovarian
[47] = test system: U251 CNS
[48] = test system: T-47D breast
[49] = test system: MDA-N
[50] = test system: SF-295 CNS
[51] = test system: UACC-62 melanoma
[52] = test system: MDA-MB-231 breast
[53] = test system: SK-MEL-28 melanoma
[54] = test system: NCI-H460 lung
[55] = test system: UO-31 renal
[56] = test system: SNB-75 CNS
[57] = test system: NCI-H522 lung
[58] = test system: SK-MEL-5 melanoma
[59] = test system: HCC-2998 colon

In the case of `CC(C)=NC(C(=O)O)C(C)(C)S` (centres undefined), the TGI [1] is reported as > 100 µM, the TGI [2] is reported as > 100 µM and the TGI [3] is reported as > 100 µM. The TGI [4] was > 100 µM, the TGI [5] was > 100 µM and the TGI [6] was > 100 µM. The TGI [7] was > 100 µM, the TGI [8] was > 100 µM and the TGI [9] was > 100 µM. The TGI [10] was > 100 µM, the TGI [11] was > 100 µM and the TGI [12] was > 100 µM. For the same compound, the TGI [13] was > 100 µM, the TGI [14] was > 100 µM and the TGI [15] was > 100 µM. For the same compound, the TGI [16] was > 100 µM, the TGI [17] was > 100 µM and the TGI [18] was > 100 µM. For the same compound, the TGI [19] was > 100 µM, the TGI [20] was > 100 µM and the TGI [21] was > 100 µM. For the same compound, the TGI [22] was > 100 µM, the TGI [23] was > 100 µM and the TGI [24] was > 100 µM. For the same compound, the TGI [25] was > 100 µM, the TGI [26] was > 100 µM and the TGI [27] was > 100 µM. For the same compound, the TGI [28] was > 100 µM, the TGI [29] was > 100 µM and the TGI [30] was > 100 µM. For the same compound, the TGI [31] was > 100 µM, the TGI [32] was > 100 µM and the TGI [33] was > 100 µM. For the same compound, the TGI [34] was > 100 µM, the TGI [35] was > 100 µM and the TGI [36] was > 100 µM. The TGI [37] was > 100 µM, the TGI [38] was > 100 µM and the TGI [39] was > 100 µM. For the same compound, the TGI [40] was > 100 µM, the TGI [41] was > 100 µM and the TGI [42] was > 100 µM. The TGI [43] was > 100 µM, the TGI [44] was > 100 µM and the TGI [45] was > 100 µM. The TGI [46] was > 100 µM, the TGI [47] was > 100 µM and the TGI [48] was > 100 µM. For the same compound, the TGI [49] was > 100 µM, the TGI [50] was > 100 µM and the TGI [51] was > 100 µM. For the same compound, the TGI [52] was > 100 µM, the TGI [53] was > 100 µM and the TGI [54] was > 100 µM. For the same compound, the TGI [55] was > 100 µM, the TGI [56] was > 100 µM and the TGI [57] was > 100 µM.

`COc1ccc(/C=C/C(=O)OC2CC34CCNC35CC(OC5(OC)C2OC)c2ccc(OC)c(O)c24)cc1O` (centres undefined) was tested, and the GI50 [1] was 22.4 µM and > 100 µM, the TGI [1] was 93.1 µM and > 100 µM and the GI50 [2] was 31.6 µM and > 100 µM. For the same compound, the TGI [2] was > 100 µM, the TGI [3] was > 100 µM and the TGI [4] was > 100 µM. The GI50 [5] was 33.7 µM and > 100 µM, the TGI [5] was > 100 µM and the TGI [6] was > 100 µM. For the same compound, the TGI [7] was > 100 µM, the GI50 [8] was 22.2 µM and > 100 µM and the TGI [8] was 52.3 µM and > 100 µM. The TGI [9] was > 100 µM, the TGI [10] was > 100 µM and the TGI [11] was > 100 µM. For the same compound, the GI50 [12] was 25.4 µM and > 100 µM, the TGI [12] was > 100 µM and the TGI [13] was > 100 µM. For the same compound, the TGI [14] was > 100 µM, the GI50 [15] was 11.3 µM and > 100 µM and the TGI [15] was 50.9 µM and > 100 µM. For the same compound, the TGI [16] was > 100 µM, the TGI [17] was > 100 µM and the TGI [18] was > 100 µM. For the same compound, the TGI [19] was 62.8 µM, the TGI [20] was > 100 µM and the TGI [21] was > 100 µM. The TGI [22] was > 100 µM, the TGI [23] was > 100 µM and the GI50 [24] was 18.4 µM and > 100 µM. For the same compound, the TGI [24] was 35.7 µM and > 100 µM, the TGI [25] was > 100 µM and the TGI [26] was > 100 µM. The GI50 [27] was 47.2 µM and > 100 µM, the TGI [27] was > 100 µM and the GI50 [28] was 19.7 µM and > 100 µM. For the same compound, the TGI [28] was 43.6 µM and > 100 µM, the GI50 [29] was 34.6 µM and > 100 µM and the TGI [29] was > 100 µM. For the same compound, the TGI [30] was > 100 µM, the TGI [31] was > 100 µM and the GI50 [32] was 30.8 µM and > 100 µM. For the same compound, the TGI [32] was > 100 µM, the TGI [33] was > 100 µM and the TGI [34] was > 100 µM. For the same compound, the TGI [35] was > 100 µM, the GI50 [36] was 38.9 µM and > 100 µM and the TGI [36] was > 100 µM. For the same compound, the GI50 [37] was 30.4 µM and > 100 µM, the TGI [37] was 76.5 µM and > 100 µM and the TGI [38] was > 100 µM. The GI50 [39] was 21.6 µM and > 100 µM, the TGI [39] was 65.6 µM and > 100 µM and the TGI [40] was > 100 µM. For the same compound, the TGI [41] was > 100 µM, the TGI [42] was > 100 µM and the GI50 [43] was 35.5 µM and > 100 µM. The TGI [43] was > 100 µM, the TGI [44] was > 100 µM and the TGI [45] was > 100 µM. The TGI [46] was > 100 µM, the GI50 [47] was 38.2 µM and > 100 µM and the TGI [47] was > 100 µM. The TGI [48] was > 100 µM, the TGI [49] was > 100 µM and the TGI [50] was > 100 µM. For the same compound, the TGI [51] was > 100 µM, the GI50 [52] was 49.7 µM and > 100 µM and the TGI [52] was > 100 µM. For the same compound, the TGI [53] was > 100 µM, the TGI [54] was > 100 µM and the TGI [55] was > 100 µM. The GI50 [56] was 14 µM and > 100 µM, the TGI [56] was 92.7 µM and > 100 µM and the TGI [58] was > 100 µM. For the same compound, the GI50 [57] was 49.6 µM and > 100 µM, the TGI [57] was > 100 µM and the GI50 [59] was 30.6 µM and > 100 µM. For the same compound, the TGI [59] was 94.2 µM and > 100 µM.

For `O=c1c2c3c(sc2nc2n1sc1nc4sc5c(c4c(=O)n12)CCCC5)CCCC3`, the TGI [1] was > 66.9 µM, the TGI [2] was > 100 µM and the TGI [3] was > 71.4 µM. For the same compound, the TGI [4] was > 100 µM, the TGI [5] was > 63.3 µM and the TGI [6] was > 100 µM. For the same compound, the TGI [7] was > 100 µM, the TGI [8] was 31 µM and the TGI [9] was > 100 µM. For the same compound, the TGI [10] was 98.1 µM, the TGI [11] was 37.2 µM and the TGI [12] was > 84.9 µM. For the same compound, the TGI [13] was > 74.3 µM, the TGI [14] was 42.4 µM and the TGI [16] was 79.7 µM. For the same compound, the TGI [17] was > 100 µM, the TGI [18] was > 100 µM and the TGI [19] was 62.3 µM. The TGI [20] was > 100 µM, the TGI [21] was > 91.8 µM and the TGI [22] was > 100 µM. For the same compound, the TGI [23] was > 100 µM, the TGI [24] was 64.7 µM and the TGI [25] was 27.8 µM. The TGI [26] was 50.8 µM, the TGI [27] was > 100 µM and the TGI [28] was > 58.8 µM. For the same compound, the TGI [29] was > 63.2 µM, the TGI [30] was > 100 µM and the TGI [31] was > 100 µM. The TGI [32] was 60.7 µM, the TGI [33] was 36.4 µM and the TGI [34] was > 100 µM. For the same compound, the TGI [35] was > 100 µM, the TGI [36] was > 100 µM and the TGI [37] was > 100 µM. For the same compound, the TGI [38] was > 100 µM, the TGI [39] was 38.5 µM and the TGI [40] was > 100 µM. For the same compound, the TGI [41] was > 100 µM, the TGI [42] was > 100 µM and the TGI [43] was > 62.5 µM. The TGI [44] was 63.5 µM, the TGI [45] was > 100 µM and the TGI [46] was > 100 µM. The TGI [47] was > 100 µM, the TGI [48] was 17.1 µM and the TGI [49] was 97.4 µM. The TGI [50] was > 100 µM, the TGI [51] was > 100 µM and the TGI [52] was > 69.5 µM. For the same compound, the TGI [53] was > 100 µM, the TGI [54] was > 100 µM and the TGI [55] was 43.9 µM. The TGI [56] was > 32.8 µM, the TGI [58] was > 100 µM and the TGI [57] was 31.1 µM. For the same compound, the TGI [59] was > 76.8 µM.
